Reference: article PMC6470699, “BcXyl, a β-xylosidase Isolated from Brunfelsia Calycina Flowers with Anthocyanin-β-glycosidase Activity” (International Journal of Molecular Sciences, 2019)

Biological target: T1, BcXyl (β-xylosidase, anthocyanin-β-glycosidase) (Brunfelsia pauciflora, UniProt A0A6G5NV63)
T1 construct: gene xyl; native purification from stage 2 petals (ammonium sulfate, DEAE, CM); about 72 kDa on SDS-PAGE; cDNA codes for 786 aa with predicted signal peptide 1-27; MS/MS peptides AVSNNFATLMR, LPMTWYPQSYADK, VTQQDLDDTFNPPFK, HYTAYDIDDWK, YEWWSEALHGISYTGPGVK
T1 sequence (A0A6G5NV63 28-785 limits assumed): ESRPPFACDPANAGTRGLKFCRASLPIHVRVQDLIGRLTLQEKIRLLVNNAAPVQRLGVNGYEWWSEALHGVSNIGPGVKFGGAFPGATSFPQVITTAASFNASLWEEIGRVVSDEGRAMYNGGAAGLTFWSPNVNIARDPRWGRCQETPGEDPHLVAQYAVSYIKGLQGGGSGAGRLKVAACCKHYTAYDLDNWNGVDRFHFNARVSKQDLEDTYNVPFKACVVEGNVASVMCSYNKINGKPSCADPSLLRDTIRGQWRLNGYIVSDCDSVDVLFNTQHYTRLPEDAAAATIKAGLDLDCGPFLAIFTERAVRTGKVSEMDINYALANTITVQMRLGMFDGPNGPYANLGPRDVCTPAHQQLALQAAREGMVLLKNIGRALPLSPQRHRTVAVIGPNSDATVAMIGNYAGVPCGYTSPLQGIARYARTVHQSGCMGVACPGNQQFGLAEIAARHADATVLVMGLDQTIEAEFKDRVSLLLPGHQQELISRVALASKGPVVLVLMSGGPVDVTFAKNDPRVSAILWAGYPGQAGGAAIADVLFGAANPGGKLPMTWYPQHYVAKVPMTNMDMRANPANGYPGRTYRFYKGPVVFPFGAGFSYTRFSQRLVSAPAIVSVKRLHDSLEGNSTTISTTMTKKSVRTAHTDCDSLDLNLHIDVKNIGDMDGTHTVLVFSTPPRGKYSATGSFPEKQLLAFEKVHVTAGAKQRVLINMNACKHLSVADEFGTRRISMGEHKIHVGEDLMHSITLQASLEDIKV
Assay: p-nitrophenol release at […] nm
Assay type: biochemical
Details: read-out: Residual Activity (%)

In the case of `O=C(O)[C@H](O)[C@@H](O)[C@H](O)[C@H](O)CO` [D-gluconic acid], the remaining activity at 1000 µM is reported as 13.2 ± 0.69%.
